Test results taken from PubChem BioAssay (NCI).
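Grown in 96-well plates, cells were treated for 48 hours with each compound at five concentrations. Insufficient inhibition: endpoint recorded as highest concentration tested. GI50 is the concentration that inhibits growth by half. Definition used: TGI = concentration required for complete inhibition of growth.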

Tests used:
Assay in all cases: NCI-60 cell line screen, 48 h
NCI-H23 lung = tested on: NCI-H23 lung
NCI-H460 lung = tested on: NCI-H460 lung
NCI-H522 lung = tested on: NCI-H522 lung
NCI/ADR-RES ovarian = tested on: NCI/ADR-RES ovarian
OVCAR-3 ovarian = tested on: OVCAR-3 ovarian
OVCAR-4 ovarian = tested on: OVCAR-4 ovarian
OVCAR-5 ovarian = tested on: OVCAR-5 ovarian
OVCAR-8 ovarian = tested on: OVCAR-8 ovarian
PC-3 prostate = tested on: PC-3 prostate
RPMI-8226 leukemia = tested on: RPMI-8226 leukemia
RXF 393 renal = tested on: RXF 393 renal
SF-268 CNS = tested on: SF-268 CNS
SF-295 CNS = tested on: SF-295 CNS
SF-539 CNS = tested on: SF-539 CNS
SK-MEL-2 melanoma = tested on: SK-MEL-2 melanoma
SK-MEL-28 melanoma = tested on: SK-MEL-28 melanoma
SK-MEL-5 melanoma = tested on: SK-MEL-5 melanoma
SK-OV-3 ovarian = tested on: SK-OV-3 ovarian
SN12C renal = tested on: SN12C renal
SNB-19 CNS = tested on: SNB-19 CNS
SNB-75 CNS = tested on: SNB-75 CNS
SR leukemia = tested on: SR leukemia
SW-620 colon = tested on: SW-620 colon
T-47D breast = tested on: T-47D breast
TK-10 renal = tested on: TK-10 renal
U251 CNS = tested on: U251 CNS
UACC-257 melanoma = tested on: UACC-257 melanoma
UACC-62 melanoma = tested on: UACC-62 melanoma
UO-31 renal = tested on: UO-31 renal

O=S(=O)(Nc1ccc(Cl)cc1Cl)c1ccc(-c2cnc(C3CC3)o2)cc1
TGI (NCI-H23 lung): 55.5 µM
GI50 (NCI-H460 lung): 0.466 µM
TGI (NCI-H460 lung): > 40.4 µM
GI50 (NCI-H522 lung): 0.435 µM
TGI (NCI-H522 lung): 17.3 µM
GI50 (NCI/ADR-RES ovarian): 0.51 µM
TGI (NCI/ADR-RES ovarian): 17.5 µM
GI50 (OVCAR-3 ovarian): 0.439 µM
TGI (OVCAR-3 ovarian): 15 µM
GI50 (OVCAR-4 ovarian): 3.72 µM
TGI (OVCAR-4 ovarian): > 100 µM
GI50 (OVCAR-5 ovarian): 2.66 µM
TGI (OVCAR-5 ovarian): > 100 µM
GI50 (OVCAR-8 ovarian): 1.79 µM
TGI (OVCAR-8 ovarian): > 82.1 µM
GI50 (PC-3 prostate): 0.612 µM
TGI (PC-3 prostate): > 53.2 µM
GI50 (RPMI-8226 leukemia): 0.903 µM
TGI (RPMI-8226 leukemia): 44.8 µM
GI50 (RXF 393 renal): 0.359 µM
TGI (RXF 393 renal): 7.41 µM
GI50 (SF-268 CNS): 2.85 µM
TGI (SF-268 CNS): 72.9 µM
GI50 (SF-295 CNS): 0.335 µM
TGI (SF-295 CNS): 3.4 µM
GI50 (SF-539 CNS): 0.414 µM
TGI (SF-539 CNS): 7.55 µM
GI50 (SK-MEL-2 melanoma): 3.03 µM
TGI (SK-MEL-2 melanoma): 42.2 µM
GI50 (SK-MEL-28 melanoma): 3.28 µM
TGI (SK-MEL-28 melanoma): > 78.8 µM
GI50 (SK-MEL-5 melanoma): 0.555 µM
TGI (SK-MEL-5 melanoma): 14.1 µM
GI50 (SK-OV-3 ovarian): 7.1 µM
TGI (SK-OV-3 ovarian): 99.4 µM
GI50 (SN12C renal): 1.4 µM
TGI (SN12C renal): 46.2 µM
GI50 (SNB-19 CNS): 0.538 µM
TGI (SNB-19 CNS): > 100 µM
GI50 (SNB-75 CNS): 0.185 µM
TGI (SNB-75 CNS): 0.75 µM
GI50 (SR leukemia): 0.42 µM
TGI (SR leukemia): > 58.9 µM
GI50 (SW-620 colon): 0.423 µM
TGI (SW-620 colon): > 100 µM
GI50 (T-47D breast): 0.475 µM
TGI (T-47D breast): > 85.8 µM
GI50 (TK-10 renal): 5.03 µM
TGI (TK-10 renal): 79.6 µM
GI50 (U251 CNS): 0.613 µM
TGI (U251 CNS): 33.8 µM
GI50 (UACC-257 melanoma): 10.5 µM
TGI (UACC-257 melanoma): 60.5 µM
GI50 (UACC-62 melanoma): 0.391 µM
TGI (UACC-62 melanoma): 26.7 µM
GI50 (UO-31 renal): 1.06 µM
TGI (UO-31 renal): 37.1 µM
